In PubChem BioAssay AID330 (DTP/NCI, 2004):
Values joined by “and” are separate entries in the source; they are usually repeats but may differ in a detail not shown here. Equal entries are not always repeated. Inconclusive results and toxic doses are left out. Rule for the calls: active = survival T/C of 150% or more; inactive = T/C below 125% in these data.

System: P388 leukemia ip, CD2F1 mice, survival T/C
Experiment: NCI In Vivo Anticancer Drug Screen. Data for tumor model P388 Leukemia (intraperitoneal) in CD2F1 (CDF1) mice
Conditions: endpoint: median survival time, higher = longer survival
In short: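 Mice carrying the transplanted tumor received test compound or vehicle. Survival was recorded in each group, and the value is the treated-group measurement divided by that of the vehicle-treated control group.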

[1] = dose: 12.5 mg/kg/injection, schedule: Q01DX009 (ip), vehicle: saline with Tween-80
[2] = dose: 25.0 mg/kg/injection, schedule: Q01DX009 (ip), vehicle: saline with Tween-80
[3] = dose: 50.0 mg/kg/injection, schedule: Q01DX009 (ip), vehicle: saline with Tween-80
[4] = dose: 100.0 mg/kg/injection, schedule: Q01DX009 (ip), vehicle: saline with Tween-80
[5] = dose: 120.0 mg/kg/injection, schedule: Q01DX005 (ip), vehicle: saline with Tween-80
[6] = dose: 240.0 mg/kg/injection, schedule: Q01DX005 (ip), vehicle: saline with Tween-80
[7] = dose: 50.0 mg/kg/injection, schedule: Q01DX005 (ip), vehicle: saline with Tween-80
[8] = dose: 100.0 mg/kg/injection, schedule: Q01DX005 (ip), vehicle: saline with Tween-80
[9] = dose: 200.0 mg/kg/injection, schedule: Q01DX005 (ip), vehicle: saline with Tween-80
[10] = dose: 50.0 mg/kg/injection, schedule: Q01DX005 (ip), vehicle: Klucel (hydroxypropylcellulose) (HPC)
[11] = dose: 100.0 mg/kg/injection, schedule: Q01DX005 (ip), vehicle: Klucel (hydroxypropylcellulose) (HPC)
[12] = dose: 200.0 mg/kg/injection, schedule: Q01DX005 (ip), vehicle: Klucel (hydroxypropylcellulose) (HPC)
[13] = dose: 50.0 mg/kg/injection, schedule: Q01DX009 (ip), vehicle: Klucel (hydroxypropylcellulose) (HPC)
[14] = dose: 100.0 mg/kg/injection, schedule: Q01DX009 (ip), vehicle: Klucel (hydroxypropylcellulose) (HPC)
[15] = dose: 200.0 mg/kg/injection, schedule: Q01DX009 (ip), vehicle: Klucel (hydroxypropylcellulose) (HPC)

Measured: T/C

CC(=O)N1C(=O)CC23c4cccc([N+](=O)[O-])c4C(=O)N2CCCN13 (stereo unspecified)
inactive: dose: 60.0 mg/kg/injection, schedule: Q01DX005 (ip), vehicle: Klucel (hydroxypropylcellulose) (HPC) 97 % of control | dose: 120.0 mg/kg/injection, schedule: Q01DX005 (ip), vehicle: Klucel (hydroxypropylcellulose) (HPC) 97 % of control | dose: 240.0 mg/kg/injection, schedule: Q01DX005 (ip), vehicle: Klucel (hydroxypropylcellulose) (HPC) 91 % of control

O=C1c2ccccc2C(=O)c2c1oc1c2ccc2ccccc21
inactive: [1] 98 % of control | [2] 92 % of control | [3] 99 % of control | [4] 87 % of control

CC1(C)C(=O)N2C(=O)CC(=O)N2C1=O
inactive: [5] 97 % of control | [6] 93 % of control

CN/N=C\c1cc2ccccc2c2ccccc12
inactive: [7] 96 % of control | [8] 91 % of control | [9] 88 % of control

CNC(=O)OCCC(OC(=O)NC)C1CCC2C3CC=C4CC(O)CCC4(C)C3CCC12C (stereo unspecified)
inactive: [10] 100 % of control | [11] 102 % of control | [12] 97 % of control

Nc1ncnc2nc(-c3ccccc3)[nH]c12
inactive: dose: 60.0 mg/kg/injection, schedule: Q01DX005 (ip), vehicle: saline with Tween-80 102 % of control | [5] 100 % of control | [6] 105 % of control

COc1cc2ccc(/C=N/NC(N)=S)cc2cc1OC
inactive: dose: 12.5 mg/kg/injection, schedule: Q01DX009 (ip), vehicle: water 96 % of control | dose: 25.0 mg/kg/injection, schedule: Q01DX009 (ip), vehicle: water 90 % of control | dose: 50.0 mg/kg/injection, schedule: Q01DX009 (ip), vehicle: water 96 % of control | dose: 100.0 mg/kg/injection, schedule: Q01DX009 (ip), vehicle: water 91 % of control | dose: 200.0 mg/kg/injection, schedule: Q01DX009 (ip), vehicle: water 89 % of control

CSc1nc(N)c(I)c(Cl)n1
inactive: dose: 50.0 mg/kg/injection, schedule: Q04DX003 (ip), vehicle: saline with Tween-80 100 % of control | dose: 100.0 mg/kg/injection, schedule: Q01DX001 (ip), vehicle: saline 110 % of control | dose: 100.0 mg/kg/injection, schedule: Q04DX003 (ip), vehicle: saline with Tween-80 102 % of control | dose: 200.0 mg/kg/injection, schedule: Q01DX001 (ip), vehicle: saline 113 % of control | dose: 200.0 mg/kg/injection, schedule: Q04DX003 (ip), vehicle: saline with Tween-80 93 % of control | dose: 400.0 mg/kg/injection, schedule: Q01DX001 (ip), vehicle: saline 110 % of control

C=CCn1c(=O)n(CC)c(=O)c2[nH]c(C(F)(F)F)nc21
inactive: dose: 25.0 mg/kg/injection, schedule: Q01DX009 (ip), vehicle: Klucel (hydroxypropylcellulose) (HPC) 99 % of control | [13] 102 % of control | [14] 112 % of control

COc1ccc(Nc2nnc(-c3ccc4c(c3)OCO4)o2)cc1
inactive: [10] 100 % of control | [11] 93 % of control | [12] 97 % of control

O=C(N=Nc1c(O)[nH]c2ccccc12)C(=O)Nc1cccc(C(F)(F)F)c1
inactive: [1] 92 % of control | [2] 89 % of control | [3] 86 % of control

ClCC(OCc1ccccc1)OCc1ccccc1
inactive: dose: 12.5 mg/kg/injection, schedule: Q01DX009 (ip), vehicle: other 114 % of control | dose: 25.0 mg/kg/injection, schedule: Q01DX009 (ip), vehicle: other 100 % of control | dose: 50.0 mg/kg/injection, schedule: Q01DX009 (ip), vehicle: other 100 % of control | dose: 100.0 mg/kg/injection, schedule: Q01DX009 (ip), vehicle: other 111 % of control | dose: 200.0 mg/kg/injection, schedule: Q01DX009 (ip), vehicle: other 119 % of control

C/C(=C/c1nc2ccccc2[nH]1)c1ccccc1
inactive: dose: 25.0 mg/kg/injection, schedule: Q01DX005 (ip), vehicle: saline with Tween-80 100 % of control | [7] 100 % of control and 107 % of control | [8] 121 % of control and 96 % of control | [9] 95 % of control and 96 % of control

CCCCCCCCCCC1(CCCC)C(=O)NC(=O)NC1=O
inactive: [2] 110 % of control | [3] 108 % of control | [4] 110 % of control

CC1=C/C(=N\N2CCOCC2)C(C(O)(C(F)(F)F)C(F)(F)F)C(C)(C)C1 (stereo unspecified)
inactive: [13] 96 % of control | [14] 102 % of control | [15] 105 % of control

CCC1C(C#N)C(=O)NC(=O)C1C#N (stereo unspecified)
inactive: [13] 100 % of control | [14] 95 % of control | [15] 95 % of control
